In US20250302815A1, “PROTEIN TYROSINE PHOSPHATASE TARGETING LIGANDS” (CALICO LIFE SCIENCES LLC, priority 2021, published 2025):

Columns and labels:
[1] = target: T1, PTPN2 (HiBIT-PTPN2 in 293T.109 cells) (Homo sapiens, UniProt P17706); assay: HiBiT Degradation 293T.109 PTPN2 (Nano-Glo HiBiT Lytic Assay); format: cell-based; details: 24.0 hours
T1 construct: expressed in transfected cells; host or cells: 293T.109 (293T WT from ATCC)
T1 sequence (P17706 1-415): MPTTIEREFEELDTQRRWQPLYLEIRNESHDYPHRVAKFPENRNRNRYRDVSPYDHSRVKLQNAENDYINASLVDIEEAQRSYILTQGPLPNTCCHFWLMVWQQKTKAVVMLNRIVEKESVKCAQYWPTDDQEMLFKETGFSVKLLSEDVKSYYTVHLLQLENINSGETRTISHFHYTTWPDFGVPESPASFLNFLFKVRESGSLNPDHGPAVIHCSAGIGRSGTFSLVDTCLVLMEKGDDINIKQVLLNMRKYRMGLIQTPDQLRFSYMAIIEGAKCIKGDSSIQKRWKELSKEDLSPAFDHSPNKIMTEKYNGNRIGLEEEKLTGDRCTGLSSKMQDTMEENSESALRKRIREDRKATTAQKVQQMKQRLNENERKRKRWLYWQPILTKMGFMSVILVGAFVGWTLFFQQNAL
Procedure, shortened: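 293T.109 cells with ectopic N-terminal HiBiT-tagged PTPN2 (5000/well) exposed to compounds for 24 h at 37 °C, 5% CO2; 11-point half-log titration from 10 μM top, duplicates. Remaining HiBiT-PTPN2 read as luminescence with Nano-Glo HiBiT lytic reagent, normalised to untreated cells (0%) and reagent-free wells.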

PTPN2 (B16F10.4 cells) = target: T2, PTPN2 (B16F10.4 cells) (Mus musculus, UniProt Q06180); assay: HiBiT Degradation B16F10.4 PTPN2; format: cell-based; details: 24.0 hours
T2 construct: HiBiT; host or cells: B16F10.4
T2 sequence (Q06180 1-406): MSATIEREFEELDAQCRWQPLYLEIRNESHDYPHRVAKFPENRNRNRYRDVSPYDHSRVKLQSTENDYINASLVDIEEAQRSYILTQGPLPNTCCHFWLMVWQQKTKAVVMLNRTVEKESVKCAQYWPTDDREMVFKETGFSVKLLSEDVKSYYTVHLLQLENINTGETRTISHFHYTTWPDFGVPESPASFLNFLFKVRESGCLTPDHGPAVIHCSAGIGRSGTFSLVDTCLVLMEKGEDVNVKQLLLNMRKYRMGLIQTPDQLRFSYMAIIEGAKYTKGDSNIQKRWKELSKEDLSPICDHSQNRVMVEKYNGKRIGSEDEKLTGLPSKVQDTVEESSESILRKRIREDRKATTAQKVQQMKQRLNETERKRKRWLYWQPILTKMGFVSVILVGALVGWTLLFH

| Compound | DC50 [1] [nM] | DC50 (PTPN2 (B16F10.4 cells)) [nM] |
| --- | --- | --- |
| Cn1c(=O)n(C2CCC(=O)NC2=O)c2ccc(C3CCN(C(=O)Nc4cccc(CS(=O)(=O)N5CC[C@H](Nc6cccc(-c7sc(C(=O)O)c(OCC(=O)O)c7Cl)c6)CC5(C)C)c4)CC3F)cc21 (stereo partly drawn) [Example 170, 3-(carboxymethoxy)-4-chloro-5-[3-[[(4S)-1-[[3-[[4-[1-(2,6-dioxo-3-piperidyl)-3-methyl-2-oxo-benzimidazol-5-yl]-3-fluoro-piperidine-1-carbonyl]amino]phenyl]methylsulfonyl]-2,2-dimethyl-4-piperidyl]amino]phenyl]thiophene-2-carboxylic acid] | < 50 | < 50 |
| Cn1c(=O)n(C2CCC(=O)NC2=O)c2ccc(N3CCC(CCNC(=O)Nc4cccc(CS(=O)(=O)N5CC[C@H](Nc6cccc(-c7sc(C(=O)O)c(OCC(=O)O)c7Cl)c6)CC5(C)C)c4)CC3)cc21 (stereo partly drawn) [Example 174, 3-(carboxymethoxy)-4-chloro-5-[3-[[(4S)-1-[[3-[2-[1-[1-(2,6-dioxo-3-piperidyl)-3-methyl-2-oxo-benzimidazol-5-yl]-4-piperidyl]ethylcarbamoylamino]phenyl]methylsulfonyl]-2,2-dimethyl-4-piperidyl]amino]phenyl]thiophene-2-carboxylic acid] | < 50 | 50 to 200 |
| CC(C)n1c(=O)n(C2CCC(=O)NC2=O)c2ccc(C3CCN(CC(=O)Nc4cccc(CS(=O)(=O)N5CC[C@H](Nc6cccc(-c7sc(C(=O)O)c(OCC(=O)O)c7Cl)c6)CC5(C)C)c4)CC3(F)F)cc21 (stereo partly drawn) [Example 176, 3-(carboxymethoxy)-4-chloro-5-[3-[[(4S)-1-[[3-[[2-[4-[1-(2,6-dioxo-3-piperidyl)-3-isopropyl-2-oxo-benzimidazol-5-yl]-3,3-difluoro-1-piperidyl]acetyl]amino]phenyl]methylsulfonyl]-2,2-dimethyl-4-piperidyl]amino]phenyl]thiophene-2-carboxylic acid] | 50 to 200 | 50 to 200 |
| CC1(C)C[C@@H](Nc2cccc(-c3sc(C(=O)O)c(OCC(=O)O)c3Cl)c2)CCN1S(=O)(=O)Cc1cccc(NC(=O)NCCCc2ccc3c4c(cccc24)N(C2CCC(=O)NC2=O)C3=O)c1 (stereo partly drawn) [Example 177, 3-(carboxymethoxy)-4-chloro-5-[3-[[(4S)-1-[3-[3-[[1-(2,6-dioxo-3-piperidyl)-2-oxo-benzo[cd]indol-5-yl]propylcarbamoylamino]phenyl]methylsulfonyl]-2,2-dimethyl-4-piperidyl]amino]phenyl]thiophene-2-carboxylic acid] | 50 to 200 | 50 to 200 |
| Cn1c(=O)n(C2CCC(=O)NC2=O)c2ccc(N3CCC(O)(CC(=O)Nc4cccc(CS(=O)(=O)N5CC[C@H](Nc6cccc(-c7sc(C(=O)O)c(OCC(=O)O)c7Cl)c6)CC5(C)C)c4)CC3)cc21 (stereo partly drawn) [Example 183, 3-(carboxymethoxy)-4-chloro-5-[3-[[(4S)-1-[[3-[[2-[1-[1-(2,6-dioxo-3-piperidyl)-3-methyl-2-oxo-benzimidazol-5-yl]-4-hydroxy-4-piperidyl]acetyl]amino]phenyl]methylsulfonyl]-2,2-dimethyl-4-piperidyl]amino]phenyl]thiophene-2-carboxylic acid] | 50 to 200 | 50 to 200 |
| Cn1nc(C2CCC(=O)NC2=O)c2ccc(C3CCN(C(=O)Nc4cccc(CS(=O)(=O)N5CC[C@@H](Nc6cccc(-c7sc(C(=O)O)c(OCC(=O)O)c7Cl)c6)CC5(C)C)c4)CC3(F)F)cc21 (stereo partly drawn) [Example 185, 3-(carboxymethoxy)-4-chloro-5-(3-(((4R)-1-((3-(4-(3-(2,6-dioxopiperidin-3-yl)-1-methyl-1H-indazol-6-yl)-3,3-difluoropiperidine-1-carboxamido)benzyl)sulfonyl)-2,2-dimethylpiperidin-4-yl)amino)phenyl)thiophene-2-carboxylic acid] | 200 to 1000 | < 50 |

More lines, now with the values ahead:

| DC50 [1] [nM] | DC50 (PTPN2 (B16F10.4 cells)) [nM] | Compound |
| --- | --- | --- |
| < 50 | < 50 | Cn1c(=O)n(C2CCC(=O)NC2=O)c2ccc([C@H]3CCN(C(=O)Nc4cccc(CS(=O)(=O)N5CC[C@H](Nc6cccc(-c7sc(C(=O)O)c(OCC(=O)O)c7Cl)c6)CC5(C)C)c4)C[C@@H]3F)cc21 (stereo partly shown) [Example 171] |
| 50 to 200 | < 50 | O=C(O)COc1c(C(=O)O)sc(-c2cccc(NC3CCN(S(=O)(=O)Cc4cccc(NC(=O)N5CCC(c6ccc7c8c(cccc68)C(=O)N7C6CCC(=O)NC6=O)CC5)c4)CC3)c2)c1Cl (stereo not shown) [Example 173, 3-(carboxymethoxy)-4-chloro-5-[3-[[1-[[3-[[4-[1-(2,6-dioxo-3-piperidyl)-2-oxo-benzo[cd]indol-6-yl]piperidine-1-carbonyl]amino]phenyl]methylsulfonyl]-4-piperidyl]amino]phenyl]thiophene-2-carboxylic acid] |
| 50 to 200 | < 50 | Cn1c(=O)n(C2CCC(=O)NC2=O)c2ccc(CC3CCN(C(=O)Nc4cccc(CS(=O)(=O)N5CC[C@H](Nc6cccc(-c7sc(C(=O)O)c(OCC(=O)O)c7Cl)c6)CC5(C)C)c4)CC3)cc21 (stereo partly drawn) [Example 175, 3-(carboxymethoxy)-4-chloro-5-[3-[[(4S)-1-[[3-[[4-[[1-(2,6-dioxo-3-piperidyl)-3-methyl-2-oxo-benzimidazol-5-yl]methyl]piperidine-1-carbonyl]amino]phenyl]methylsulfonyl]-2,2-dimethyl-4-piperidyl]amino]phenyl]thiophene-2-carboxylic acid] |
| 50 to 200 | 50 to 200 | Cn1c(=O)n(C2CCC(=O)NC2=O)c2ccc(-c3ccc(CC(=O)Nc4cccc(CS(=O)(=O)N5CC[C@H](Nc6cccc(-c7sc(C(=O)O)c(OCC(=O)O)c7Cl)c6)CC5(C)C)c4)cc3F)cc21 (stereo partly drawn) [Example 178, 3-(carboxymethoxy)-4-chloro-5-(3-(((4S)-1-((3-(2-(4-(1-(2,6-dioxopiperidin-3-yl)-3-methyl-2-oxo-2,3-dihydro-1H-benzo[d]imidazol-5-yl)-3-fluorophenyl)acetamido)benzyl)sulfonyl)-2,2-dimethylpiperidin-4-yl)amino)phenyl)thiophene-2-carboxylic acid] |
| 200 to 1000 | 200 to 1000 | Cn1c(=O)n(C2CCC(=O)NC2=O)c2ccc(N3CCC(O)(CC(=O)Nc4cccc(CS(=O)(=O)N5CC[C@@H](Nc6cccc(-c7sc(C(=O)O)c(OCC(=O)O)c7Cl)c6)CC5(C)C)c4)CC3)cc21 (stereo partly drawn) [Example 179, 3-(carboxymethoxy)-4-chloro-5-(3-(((4R)-1-((3-(2-(1-(1-(2,6-dioxopiperidin-3-yl)-3-methyl-2-oxo-2,3-dihydro-1H-benzo[d]imidazol-5-yl)-4-hydroxypiperidin-4-yl)acetamido)benzyl)sulfonyl)-2,2-dimethylpiperidin-4-yl)amino)phenyl)thiophene-2-carboxylic acid] |
| < 50 | < 50 | CC(C)n1c(=O)n(C2CCC(=O)NC2=O)c2ccc(C3CCN(C(=O)Nc4cccc(CS(=O)(=O)N5CC[C@H](Nc6cccc(-c7sc(C(=O)O)c(OCC(=O)O)c7Cl)c6)CC5(C)C)c4)CC3(F)F)cc21 (stereo partly drawn) [Example 181, 3-(carboxymethoxy)-4-chloro-5-[3-[[(4S)-1-[[3-[[4-[1-(2,6-dioxo-3-piperidyl)-3-isopropyl-2-oxo-benzimidazol-5-yl]-3,3-difluoro-piperidine-1-carbonyl]amino]phenyl]methylsulfonyl]-2,2-dimethyl-4-piperidyl]amino]phenyl]thiophene-2-carboxylic acid] |
| < 50 | 50 to 200 | Cn1c(=O)n(C2CCC(=O)NC2=O)c2ccc(C3CN(CC(=O)Nc4cccc(CS(=O)(=O)N5CC[C@H](Nc6cccc(-c7sc(C(=O)O)c(OCC(=O)O)c7Cl)c6)CC5(C)C)c4)C3)cc21 (stereo partly shown) [Example 184] |
| 50 to 200 | 50 to 200 | CC1(C)C[C@@H](Nc2cccc(-c3sc(C(=O)O)c(OCC(=O)O)c3Cl)c2)CCN1S(=O)(=O)Cc1cccc(NC(=O)N2CCC(c3ccc4c(c3)n(C(C)(C)C)c(=O)n4C3CCC(=O)NC3=O)CC2)c1 (stereo partly drawn) [Example 186, 5-(3-(((4S)-1-((3-(4-(3-(tert-butyl)-1-(2,6-dioxopiperidin-3-yl)-2-oxo-2,3-dihydro-1H-benzo[d]imidazol-5-yl)piperidine-1-carboxamido)benzyl)sulfonyl)-2,2-dimethylpiperidin-4-yl)amino)phenyl)-3-(carboxymethoxy)-4-chlorothiophene-2-carboxylic acid] |
